Laboratory results reported in patent US5500410A, “Substituted alkylamide derivatives of teicoplanin” (Gruppo Lepetit S.p.A., priority 1989, dated 1996).

Tests used:
[1] = tested on: Escherichia coli SKF 12140; test: In vitro MIC, two-fold dilution in microtiter; assay type: cell-based; conditions: 18-24 h at 37° C., inoculum about 10^4 CFU/ml
Method: (§1) Broth cultures are diluted enough so that the final inecuium is about 10^4 colony forming units/ml (CFU/ml).

[2] = tested on: Proteus vulgaris X19H ATCC 881; test: In vitro MIC, two-fold dilution in microtiter; assay type: cell-based; conditions: 18-24 h at 37° C., inoculum about 10^4 CFU/ml
Method: as §1

[3] = tested on: Staphylococcus haemolyticus L 602; test: In vitro MIC, two-fold dilution in microtiter; assay type: cell-based; conditions: 18-24 h at 37° C., inoculum about 10^4 CFU/ml
Method: as §1

[4] = tested on: Streptococcus faecalis ATCC 7080; test: In vitro MIC, two-fold dilution in microtiter; assay type: cell-based; conditions: 18-24 h at 37° C., inoculum about 10^4 CFU/ml
Method: as §1

[5] = tested on: Staphylococcus epidermidis ATCC 12228; test: In vitro MIC, two-fold dilution in microtiter; assay type: cell-based; conditions: 18-24 h at 37° C., inoculum about 10^4 CFU/ml
Method: as §1

[6] = tested on: Streptococcus pneumoniae UC 41; test: In vitro MIC, two-fold dilution in microtiter; assay type: cell-based; conditions: 18-24 h at 37° C., inoculum about 10^4 CFU/ml
Method: as §1

[7] = tested on: Staphylococcus aureus TOUR; test: In vitro MIC, two-fold dilution in microtiter; assay type: cell-based; conditions: 18-24 h at 37° C., inoculum about 10^4 CFU/ml
Method: as §1

[8] = tested on: Streptococcus pyogenes C 203; test: In vitro MIC, two-fold dilution in microtiter; assay type: cell-based; conditions: 18-24 h at 37° C., inoculum about 10^4 CFU/ml
Method: as §1

[9] = tested on: Pseudomonas aeruginosa ATCC 10145; test: In vitro MIC, two-fold dilution in microtiter; assay type: cell-based; conditions: 18-24 h at 37° C., inoculum about 10^4 CFU/ml
Method: as §1

[10] = tested on: E. coli; test: Mice septicemically infected with E. coli; assay type: in vivo; conditions: E. coli septicemia
[11] = tested on: Pseudomonas aeruginosa Strain No. L 1348; test: MIC against multi-resistant clinical isolates of Pseudomonas aeruginosa; assay type: cell-based; conditions: multi-resistant clinical isolate
Method: as §1
(§2) The activity against some multi-resistant clinical isolates of Pseudomonas aeruginosa of compounds 22, 23, 25, 26, 27 and 29 is shown in Table II.

[12] = tested on: Pseudomonas aeruginosa Strain No. L 1533; test: as above; assay type: cell-based; conditions: multi-resistant clinical isolate
Method: as §1, §2

[13] = tested on: Pseudomonas aeruginosa Strain No. L 1138; test: as above; assay type: cell-based; conditions: multi-resistant clinical isolate
Method: as §1, §2

[14] = tested on: Pseudomonas aeruginosa Strain No. L 1498; test: as above; assay type: cell-based; conditions: multi-resistant clinical isolate
Method: as §1, §2

[15] = tested on: Strep. pyogenes C 203; test: In vivo test in mice septicemically infected with Strep. pyogenes C 203; conditions: Strep. pyogenes C 203 septicemia
Description: The ED50 values (mg/kg) of representative compounds of the invention in in vivo tests in mice septicemically infected with Strep. pyogenes. C 203, obtained according to the procedure described by V. Arioli et al. (Journal of Antibiotics 29, 511; 1976) are given in table III.

| SMILES | MIC Escherichia coli SKF 12140 [1] [microgram/ml] | MIC Proteus vulgaris X19H ATCC 881 [2] [microgram/ml] | MIC Staphylococcus haemolyticus L 602 [3] [microgram/ml] | MIC Streptococcus faecalis ATCC 7080 [4] [microgram/ml] | MIC Staphylococcus epidermidis ATCC 12228 [5] [microgram/ml] | MIC Streptococcus pneumoniae UC 41 [6] [microgram/ml] | MIC Staphylococcus aureus TOUR [7] [microgram/ml] | MIC Streptococcus pyogenes C 203 [8] [microgram/ml] | MIC Pseudomonas aeruginosa ATCC 10145 [9] [microgram/ml] | survivors/treated ([10]; i.v. administration, 40 mg/kg) | ED50 s.c. ([10]; s.c. administration) [mg/kg] | MIC Pseudomonas aeruginosa L 1348 [11] [microgram/ml] | MIC Pseudomonas aeruginosa L 1533 [12] [microgram/ml] | MIC Pseudomonas aeruginosa L 1138 [13] [microgram/ml] | MIC Pseudomonas aeruginosa L 1498 [14] [microgram/ml] | ED50 p.o. ([15]; p.o.) [mg/kg] | ED50 s.c. ([15]; s.c.) [mg/kg] |
| --- | --- | --- | --- | --- | --- | --- | --- | --- | --- | --- | --- | --- | --- | --- | --- | --- | --- |
| NCCCN(CCCN)CCCNC(=O)C1NC(=O)C2NC(=O)C(NC(=O)C3NC(=O)C4NC(=O)C(Cc5ccc(c(Cl)c5)Oc5cc3cc(c5O)Oc3ccc(cc3Cl)C2O)NC(=O)C(N)c2ccc(O)c(c2)Oc2cc(O)cc4c2)c2ccc(O)c(c2)-c2c(O)cc(O)cc21 (stereo not drawn) [Compound 50] | 1 | 128 | 0.06 | 0.12 | 0.008 | 0.12 | 0.12 | 0.06 | 8 | 7/8 | ≤ 38 |  |  |  |  |  |  |
| NCCCNCCCCNCCCNC(=O)C1NC(=O)C2NC(=O)C(NC(=O)C3NC(=O)C4NC(=O)C(Cc5ccc(c(Cl)c5)Oc5cc3cc(c5O)Oc3ccc(cc3Cl)C2O)NC(=O)C(N)c2ccc(O)c(c2)Oc2cc(O)cc4c2)c2ccc(O)c(c2)-c2c(O)cc(O)cc21 (stereo not drawn) [Compound 27] | 2 | 64 | 0.12 | 0.12 | 0.06 | 0.12 | 0.06 | 0.06 | 8 |  |  | 4 | 64 | 64 | 64 |  |  |
| NCCCNCCCNC(=O)C1NC(=O)C2NC(=O)C(NC(=O)C3NC(=O)C4NC(=O)C(Cc5ccc(c(Cl)c5)Oc5cc3cc(c5O)Oc3ccc(cc3Cl)C2O)NC(=O)C(N)c2ccc(O)c(c2)Oc2cc(O)cc4c2)c2ccc(O)c(c2)-c2c(O)cc(O)cc21 (stereo not drawn) [Compound 22] | 1 | 32 | 0.12 | 0.12 | 0.03 | 0.12 | 0.06 | 0.12 | 8 |  |  | 4 | 64 | 64 | 64 |  |  |
| CC(=O)NC1C(OC2c3ccc(c(Cl)c3)Oc3cc4cc(c3OC3OC(CO)C(O)C(O)C3NC(=O)CCCCCCC(C)C)Oc3ccc(cc3Cl)CC3NC(=O)C(N)c5ccc(O)c(c5)Oc5cc(O)cc(c5)C(NC3=O)C(=O)NC4C(=O)NC3C(=O)NC2C(=O)NC(C(=O)NCCCNCCCCNCCCN)c2cc(O)cc(OC4OC(CO)C(O)C(O)C4O)c2-c2cc3ccc2O)OC(CO)C(O)C1O (stereo not drawn) [Compound 11] | 64 | 128 | 0.12 | 0.12 | 0.06 | 0.12 | 0.12 | 0.06 | 32 |  |  |  |  |  |  | 81.2 | 0.03 |
| NCCCNCCCNCCCNC(=O)C1NC(=O)C2NC(=O)C(NC(=O)C3NC(=O)C4NC(=O)C(Cc5ccc(c(Cl)c5)Oc5cc3cc(c5O)Oc3ccc(cc3Cl)C2O)NC(=O)C(N)c2ccc(O)c(c2)Oc2cc(O)cc4c2)c2ccc(O)c(c2)-c2c(O)cc(O)cc21 (stereo not drawn) [Compound 26] | 0.5 | 64 | 0.06 | 0.25 | 0.016 | 0.12 | 0.06 | 0.06 | 2 |  |  | 4 | 64 | 32 | 64 |  |  |
| NCCCNCCNCCCNC(=O)C1NC(=O)C2NC(=O)C(NC(=O)C3NC(=O)C4NC(=O)C(Cc5ccc(c(Cl)c5)Oc5cc3cc(c5O)Oc3ccc(cc3Cl)C2O)NC(=O)C(N)c2ccc(O)c(c2)Oc2cc(O)cc4c2)c2ccc(O)c(c2)-c2c(O)cc(O)cc21 (stereo not drawn) [Compound 25] | 2 | 64 | 0.12 | 0.12 | 0.06 | 0.12 | 0.12 | 0.06 | 16 |  |  | 4 | 64 | 32 | 64 |  |  |
| NCCN(CCN)CCNC(=O)C1NC(=O)C2NC(=O)C(NC(=O)C3NC(=O)C4NC(=O)C(Cc5ccc(c(Cl)c5)Oc5cc3cc(c5O)Oc3ccc(cc3Cl)C2O)NC(=O)C(N)c2ccc(O)c(c2)Oc2cc(O)cc4c2)c2ccc(O)c(c2)-c2c(O)cc(O)cc21 (stereo not drawn) [Compound 29] | 1 | 32 | 0.06 | 0.12 | 0.016 | 0.12 | 0.06 | 0.06 | 8 |  |  | 8 | 128 | 64 | 64 |  |  |
